In the supplement of paper PMC10307832:

How the values were obtained:
Experiment in all cases: relative viability (nuclei count vs DMSO), 5 days (fraction); higher = more cells survive
Elesclomol + Crizotinib = compound: CN(NC(=O)CC(=O)NN(C)C(=S)c1ccccc1)C(=S)c1ccccc1 [Elesclomol] + C[C@@H](Oc1cc(-c2cnn(C3CCNCC3)c2)cnc1N)c1c(Cl)ccc(F)c1Cl [Crizotinib] (partner 1 µM)
Procedure, shortened: (§1)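 Lung cancer cell lines in 1536-well plates were dosed by pin tool the day after seeding, either with one drug alone or with a fixed anchor-drug dose plus five library-drug doses (not always all listed) in √10 steps. After 5 days, cells were fixed and their nuclei stained in one step (final 0.05% Triton X-100, 1% formaldehyde, 1 ug/ml Hoechst), then counted on 4× images. Relative viability is the nuclei count in treated wells divided by that in vehicle wells. Values are medians of duplicate plates.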

Elesclomol + Pemetrexed = compound: CN(NC(=O)CC(=O)NN(C)C(=S)c1ccccc1)C(=S)c1ccccc1 [Elesclomol] + Nc1nc2[nH]cc(CCc3ccc(C(=O)N[C@@H](CCC(=O)O)C(=O)O)cc3)c2c(=O)[nH]1 [Pemetrexed] (partner 0.2 µM)
Procedure, shortened: as §1

Elesclomol + Linsitinib = compound: CN(NC(=O)CC(=O)NN(C)C(=S)c1ccccc1)C(=S)c1ccccc1 [Elesclomol] + C[C@]1(O)C[C@@H](c2nc(-c3ccc4ccc(-c5ccccc5)nc4c3)c3c(N)nccn32)C1 [Linsitinib] (partner 1 µM)
Procedure, shortened: as §1

Elesclomol + Olaparib = compound: CN(NC(=O)CC(=O)NN(C)C(=S)c1ccccc1)C(=S)c1ccccc1 [Elesclomol] + O=C(c1cc(Cc2n[nH]c(=O)c3ccccc23)ccc1F)N1CCN(C(=O)C2CC2)CC1 [Olaparib] (partner 8 µM)
Procedure, shortened: as §1

Elesclomol + Trametinib = compound: CN(NC(=O)CC(=O)NN(C)C(=S)c1ccccc1)C(=S)c1ccccc1 [Elesclomol] + CC(=O)Nc1cccc(-n2c(=O)n(C3CC3)c(=O)c3c(Nc4ccc(I)cc4F)n(C)c(=O)c(C)c32)c1 [Trametinib] (partner 0.02 µM)
Procedure, shortened: as §1

| Cell Line | relative viability (Elesclomol + Crizotinib; first compound 0.003162 µM) | relative viability (Elesclomol + Crizotinib; first compound 0.01 µM) | relative viability (Elesclomol + Crizotinib; first compound 0.03162 µM) | relative viability (Elesclomol + Crizotinib; first compound 0.1 µM) | relative viability (Elesclomol + Pemetrexed; first compound 0.003162 µM) | relative viability (Elesclomol + Pemetrexed; first compound 0.01 µM) | relative viability (Elesclomol + Pemetrexed; first compound 0.03162 µM) | relative viability (Elesclomol + Pemetrexed; first compound 0.1 µM) | relative viability (Elesclomol + Linsitinib; first compound 0.003162 µM) | relative viability (Elesclomol + Linsitinib; first compound 0.01 µM) | relative viability (Elesclomol + Linsitinib; first compound 0.03162 µM) | relative viability (Elesclomol + Linsitinib; first compound 0.1 µM) | relative viability (Elesclomol + Olaparib; first compound 0.003162 µM) | relative viability (Elesclomol + Olaparib; first compound 0.01 µM) | relative viability (Elesclomol + Olaparib; first compound 0.03162 µM) | relative viability (Elesclomol + Olaparib; first compound 0.1 µM) | relative viability (Elesclomol + Trametinib; first compound 0.003162 µM) | relative viability (Elesclomol + Trametinib; first compound 0.01 µM) | relative viability (Elesclomol + Trametinib; first compound 0.03162 µM) | relative viability (Elesclomol + Trametinib; first compound 0.1 µM) |
| --- | --- | --- | --- | --- | --- | --- | --- | --- | --- | --- | --- | --- | --- | --- | --- | --- | --- | --- | --- | --- |
| NCI-H1755 | 0.849 | 0.827 | 0.692 | 0.222 | 0.383 | 0.359 | 0.426 | 0.348 | 1.01 | 1.04 | 0.967 | 0.223 | 0.87 | 0.813 | 0.938 | 0.692 | 0.772 | 0.77 | 0.774 | 0.56 |
| NCI-H1792 | 0.939 | 0.945 | 1 | 1.01 | 0.79 |  | 0.793 | 0.277 | 0.506 | 0.387 | 0.584 | 0.577 | 0.5 |  | 0.395 | 0.169 | 0.367 |  | 0.366 | 0.267 |
| NCI-H1915 | 0.888 |  | 0.895 | 0.759 | 0.499 | 0.456 | 0.481 | 0.286 | 1.09 |  | 1.05 | 0.971 | 0.256 | 0.243 | 0.231 | 0.169 | 0.301 | 0.242 | 0.305 | 0.118 |
| NCI-H1944 | 1.07 | 1.06 | 1 | 1.01 | 0.613 | 0.724 | 0.572 | 0.189 | 1.14 | 1.18 | 1.12 | 1.13 | 0.421 | 0.412 | 0.358 | 0.209 | 0.48 | 0.456 | 0.352 | 0.266 |
| NCI-H1975 | 0.934 | 0.835 | 0.407 | 0.132 | 0.298 | 0.292 | 0.17 | 0.133 | 0.942 | 0.764 | 0.225 | 0.126 | 0.752 | 0.633 | 0.337 | 0.183 | 0.356 | 0.229 | 0.14 | 0.125 |
| NCI-H1993 | 0.812 | 0.836 | 0.603 | 0.577 | 0.707 | 0.6 | 0.486 | 0.366 | 0.72 | 0.823 | 0.683 | 0.591 | 0.967 | 0.789 | 0.516 | 0.393 | 0.544 | 0.576 | 0.495 | 0.339 |
| NCI-H2009 | 1.06 | 0.644 | 0.137 | 0.109 | 1.02 | 0.982 | 0.312 | 0.115 | 1.25 | 0.677 | 0.183 | 0.142 | 0.643 | 0.515 | 0.128 | 0.109 | 0.283 | 0.259 | 0.15 | 0.0957 |
| NCI-H2023 | 0.44 | 0.248 | 0.0779 | 0.0736 | 0.172 | 0.128 | 0.0613 | 0.0421 | 0.697 | 0.319 | 0.209 | 0.0484 | 0.465 | 0.272 | 0.143 | 0.102 | 0.469 | 0.149 | 0.0579 | 0.045 |
| NCI-H2085 | 0.881 | 0.495 | 0.339 | 0.226 | 0.911 | 0.902 | 0.64 | 0.168 | 0.786 | 0.596 | 0.432 | 0.247 | 0.874 | 0.669 | 0.497 | 0.282 | 0.608 | 0.434 | 0.207 | 0.174 |
| NCI-H2087 | 0.814 | 0.531 | 0.495 | 0.457 | 0.588 | 0.685 | 0.609 | 0.108 | 1.01 | 0.607 | 0.587 | 0.696 | 0.55 | 0.264 | 0.334 | 0.082 | 0.204 | 0.149 | 0.153 | 0.0863 |
| NCI-H2126 | 1.02 | 1.05 | 1.03 | 1.02 | 0.766 | 0.59 | 0.686 | 0.542 | 0.665 | 0.699 | 0.731 | 0.65 | 0.913 | 0.886 | 0.887 | 0.777 | 0.554 | 0.555 | 0.497 | 0.557 |
| NCI-H2228 | 0.381 | 0.312 | 0.143 | 0.0592 | 0.307 | 0.308 | 0.143 | 0.0377 | 0.694 | 0.541 | 0.365 | 0.0338 | 0.537 | 0.365 | 0.195 | 0.0479 | 0.573 | 0.228 | 0.177 | 0.0514 |
| NCI-H2347 | 0.626 | 0.503 | 0.416 | 0.433 | 0.401 | 0.372 | 0.411 | 0.441 | 0.967 | 0.88 | 0.992 | 0.629 | 0.591 | 0.463 | 0.525 | 0.339 | 0.341 | 0.264 | 0.33 | 0.256 |
| NCI-H2405 | 0.785 | 0.565 | 0.306 | 0.307 | 1.03 | 0.707 | 0.323 | 0.297 | 0.899 | 0.315 | 0.26 | 0.27 | 0.737 | 0.693 | 0.386 | 0.353 | 0.687 | 0.468 | 0.295 | 0.272 |
| NCI-H3122 | 0.253 | 0.329 | 0.296 | 0.217 | 0.177 | 0.229 | 0.194 | 0.128 | 1.04 | 1.07 | 0.956 | 0.228 | 0.606 | 0.665 | 0.563 | 0.105 | 0.23 | 0.21 | 0.216 | 0.0967 |
| PC-3 [JPC-3] | 0.972 | 0.959 | 1.02 | 0.743 | 1.04 | 0.714 | 0.518 | 0.499 | 0.958 | 0.907 | 0.984 | 0.791 | 1.13 | 0.968 | 0.728 | 0.627 | 0.714 | 0.473 | 0.435 | 0.5 |
